From patent publication US20240262845A1, “PYRIDINIUM SALTS, METHODS OF MAKING, AND METHODS OF USE” (UNIVERSITY OF WYOMING, priority 2023, published 2024)
“Also recorded” adds a separate entry of the source. Where a name gives a salt, the structure may show the parent alone.

System: HEK293T lysates
Experiment: Chemoproteomic profiling of HEK293T lysates (protein-level enrichment)
Assay type: biochemical, human
Procedure: In lysate tryptophan probe treatment for protein-level characterization: HEK293T cell pellets were suspended in native lysis buffer (50 mM HEPES pH 7.5, 150 mM sodium chloride (NaCl), 1.5 mM MgCl2, 1 mM DTT, 0.8% NP-40, 5% glycerol, and 1× protease inhibitors (Thermo)) at 2× the pellet volume. The samples were sonicated on ice for 30 seconds at 20% amplitude with a 2 second pulse ON and 3 second pulse OFF. Cell debris was removed by centrifugation at 20,000×g for 20 minutes at 4° C. Protein concentration was determined by bicinchoninic acid (BCA) (Pierce) and diluted down to 5 mg/mL with ChemProt buffer (50 mM HEPES pH 7.5, 150 mM NaCl, 1.5 mM MgCl2, 1 mM DTT, 0.4% NP-40, and 1x protease inhibitors (Thermo). 5 mg cell lysates were treated with 100× stocks of the tryptophan probes (pyridinium salts 1a, 1b, and 2b) to generate final concentrations (0, 1, 10, and 100 μM) in 1% DMSO. Lysates were incubated for 1 hour at 4° C. followed by photo-activation at respective wavelengths for 20 minutes at 4° C. Excess probe was removed using Sephadex G-25 PD-10 desalting columns (GE Healthcare) pre-equilibrated with 50 mM HEPES pH 7.5, 150 mM NaCl, 1.5 mM MgCl2, and 0.4% NP-40. The samples were then treated with 100 μL Neutravidin resin as a 50% slurry (Peirce). The samples were incubated overnight on a rotating apparatus at R.T. The following day, the beads were transferred to a MobiCol column (Boca Scientific), washed 3× with phosphate buffered saline (PBS) containing 0.2% SDS, washed 3× with PBS, and the enriched proteins were eluted with 2× NuPAGE lithium dodecyl sulfate (LDS) containing 10 mM DTT (Pierce) and heated for 30 minutes at 55° C. The eluent was collected and subsequently treated with 20 mM iodoacetamide (Pierce) for 30 minutes at R.T. protected from light. Samples were passed through detergent removal columns (Pierce) that were pre-equilibrated with 50 mM HEPES pH 8.0. The samples were treated with 2.5 μg Trypsin/LysC (Promega) at 37° C. for 16 hours. The following day, the sample was collected and prepped for isobaric labeling with TMT reagents (Thermo) as specified by the manufacturer.
Quantitative proteomics by two-dimensional nano liquid chromatography-tandem mass spectrometry (nLC-MS/MS): For protein-level characterization, the TMT-labeled sample were reconstituted in 0.1% formic acid (FA)/2% acetonitrile for offline high-pH reversed phase separation (RP10) using a Dionex UltiMate 3000 high-performance liquid chromatography (HPLC) system with fraction collection using Chromeleon v.6.8 (Thermo) software. Separation was achieved on a Waters Xbridge C18 3.5 μm 2.1×150 mm HPLC column (Waters) using a flow rate of 250 μL min-1 and the following ternary gradient and conditions: mobile phase A=water (HPLC grade), mobile phase B=acetonitrile (HPLC grade), and mobile phase C=200 mM ammonium acetate, pH 10. Mobile phase C is held at 10% throughout gradient. Starting conditions are 89% mobile phase A and 1% mobile phase B, ramping mobile phase B to 80% over 65 min. Fractions were collected in 96-well plates at 100 sec per well. Fractions were reduced down to 12 fractions, dried, and reconstituted in 0.1% FA/2% acetonitrile for nLC-MS/MS. All data were acquired using a Orbitrap Fusion Lumos coupled to an Easy-nLC 1200 nanoflow liquid chromatograph operating at 300 nL min-1. Peptides were cleaned up using a 1 cm online custom trap then eluted on a custom 20 cm laser pulled 75 μm column with C18 resin. Peptides were quantified using the synchronous precursor selection (SPS-MS3) or HCD method for TMT quantitation with 120k MS1 resolving power, 50 ms max injection time and 100% AGC. MS2 spectra were selected using the top ten most abundant features with a charge state between 2-6 using CID (collision induced dissociation) in the ion trap. The AGC was set to 100% with an isolation width of 0.7. MS3 was performed on the top 10 most abundant MS2 features between 400-1600 amu with a collision energy of 55%, AGC of 250%, and 50k resolution. […]

With `COc1ccc2cc(-c3cc(C)[n+](N(C)C(=O)OCCCCC[C@H]4SC[C@H]5NC(=O)N[C@H]54)c(C)c3)ccc2c1` (stereo in doubt) [pyridinium salt 2b, 4-(6-methoxynaphthalen-2-yl)-2,6-dimethyl-1-(methyl(((5-((3aR,4R,6aS)-2-oxohexahydro-1H-thieno[3,4-d]imidazol-4-yl)pentyl)oxy)carbonyl)amino)pyridin-1-ium tetrafluoroborate] the “Western blot (streptavidin-HRP) proteome labeling profile of elutions” value (0-100 μM probe, with/without light, before digestion) was “concentration and optically dependent proteome labeling profiles; also recorded: dose-response profiles”, the “percentage of unique enriched proteins (proteome coverage comparison of probes)” value (100 μM probe, FIG. 17B) was “about 69%” and the “number of proteins identified (from ≥2 unique peptides) showing ≥2-fold enrichment versus DMSO” value (about 100 μM probe, 5 mg/mL lysate, 60 min incubation, 20 min irradiation: 302 nm (1a), 320 nm (1b), 440 nm (2b)) was 523.
